Results reported in patent publication US20120015907A1, “Furopyridine compounds and uses thereof” (NOVARTIS AG, priority 2010, published 2012).
Read-outs that look alike come from different tables or passages of the source.

Biological target: T1, HCV polymerase (Hepatitis C virus genotype 1b, UniProt Q9WMX2)
T1 construct: (His)6 (C)
Assay: biochemical
Conditions: polymerase assay of Biological Example 1

Compound | IC50 (read-out: NS5B polymerase IC50) | IC50 (NS5B polymerase IC50 μM)
CCc1cc2c(C(=O)NC)c(-c3ccc(F)cc3)oc2nc1N(CCC[S+](C)[O-])S(C)(=O)=O (stereo not shown) [Example 23.999, 5-ethyl-2-(4-fluorophenyl)-N-methyl-6-(N-(3-(methylsulfinyl)propyl)methylsulfonamido)furo[2,3-b]pyridine-3-carboxamide] | 0.079 µM | –
CCc1cc2c(C(=O)NC)c(-c3ccc(F)cc3)oc2nc1N(CCCCC(C)O)S(C)(=O)=O (stereo not shown) [Example 22.93, 5-ethyl-2-(4-fluorophenyl)-6-(N-(5-hydroxyhexyl)methylsulfonamido)-N-methylfuro[2,3-b]pyridine-3-carboxamide] | 0.047 µM | –
CCc1cc2c(C(=O)NC)c(-c3ccc(F)cc3)oc2nc1N(CCCN1CCOCC1)S(C)(=O)=O [Example 21.93, 5-ethyl-2-(4-fluorophenyl)-N-methyl-6-(N-(3-morpholinopropyl)methylsulfonamido)furo[2,3-b]pyridine-3-carboxamide] | 0.186 µM | –
CCc1cc2c(C(=O)NC)c(-c3ccc(F)cc3)oc2nc1N(CCCC(=O)N(C)C)S(C)(=O)=O [Example 22.96, 6-(N-(4-(dimethylamino)-4-oxobutyl)methylsulfonamido)-5-ethyl-2-(4-fluorophenyl)-N-methylfuro[2,3-b]pyridine-3-carboxamide] | 0.131 µM | –
CNC(=O)c1c(-c2ccc(F)cc2)oc2nc(N(C)S(C)(=O)=O)c(C(C)C)cc12 [Example 6.2, 2-(4-fluorophenyl)-5-isopropyl-N-methyl-6-(N-methylmethylsulfonamido)furo[2,3-b]pyridine-3-carboxamide] | 0.058 µM | –
CNC(=O)c1c(-c2ccc(C)cc2)oc2nc(N(CCCO)S(C)(=O)=O)c(C3CC3)cc12 [Example 23.99997, 5-cyclopropyl-6-(N-(3-hydroxypropyl)methylsulfonamido)-N-methyl-2-p-tolylfuro[2,3-b]pyridine-3-carboxamide] | 0.004 µM | –
CCc1cc2c(C(=O)NC)c(-c3ccc(F)cc3)oc2nc1N(CCc1ccc(OC)cc1)S(C)(=O)=O [Example 21.993, 5-ethyl-2-(4-fluorophenyl)-6-(N-(4-methoxyphenethyl)methylsulfonamido)-N-methylfuro[2,3-b]pyridine-3-carboxamide] | 0.228 µM | –
CNC(=O)c1c(-c2ccc(C)cc2)oc2nc(N(CCC3CCCC3C(=O)O)S(C)(=O)=O)c(I)cc12 (stereo not shown) [Example 18.999, 2-(2-(N-(5-iodo-3-(methylcarbamoyl)-2-p-tolylfuro[2,3-b]pyridin-6-yl)methylsulfonamido)ethyl)cyclopentanecarboxylic acid] | 0.004 µM | –
CNC(=O)c1c(-c2ccc(C)cc2)oc2nc(N(CCC(CC(=O)O)N(C)C)S(C)(=O)=O)c(C3CC3)cc12 (stereo not shown) [Example 44, 5-[(5-Cyclopropyl-3-methylcarbamoyl-2-p-tolyl-furo[2,3-b]pyridin-6-yl)-methanesulfonyl-amino]-3-dimethylamino-pentanoic acid] | 0.02 µM | –
CNC(=O)c1c(-c2ccc(C)cc2)oc2nc(N(CCCC[C@H](COC)C(=O)N[C@H](CO)Cc3ccccc3)S(C)(=O)=O)c(C3CC3)cc12 [Example 47.6, 5-Cyclopropyl-6-(N—((R)-6-((S)-1-hydroxy-3-phenylpropan-2-ylamino)-5-(methoxymethyl)-6-oxohexyl)methylsulfonamido)-N-methyl-2-p-tolylfuro[2,3-b]pyridine-3-carboxamide] | 0.005 µM | –
CCOP(C)(=O)CCCCCN(c1nc2oc(-c3ccc(CC)cc3)c(C(=O)NC)c2cc1I)S(C)(=O)=O (stereo not shown) [Example 23.9992, ethyl 5-(N-(2-(4-ethylphenyl)-5-iodo-3-(methylcarbamoyl)furo[2,3-b]pyridin-6-yl)methylsulfonamido)pentyl (methyl)phosphinate] | – | 0.02 µM
CCc1cc2c(C(=O)NC)c(-c3ccc(F)cc3)oc2nc1N(CCOc1ccccc1OC)S(C)(=O)=O [Example 21.91, 5-ethyl-2-(4-fluorophenyl)-6-(N-(2-(2-methoxyphenoxy)ethyl)methylsulfonamido)-N-methylfuro[2,3-b]pyridine-3-carboxamide] | 0.57 µM | –
CCc1cc2c(C(=O)NC)c(-c3ccc(F)cc3)oc2nc1N(CCCN(C)S(=O)(=O)c1ccccc1)S(C)(=O)=O [Example 23.9, 5-ethyl-2-(4-fluorophenyl)-N-methyl-6-(N-(3-(N-methylphenylsulfonamido)propyl)methylsulfonamido) furo[2,3-b]pyridine-3-carboxamide] | 0.074 µM | –
CNC(=O)c1c(-c2ccc(C)cc2)oc2nc(N(CC3CCC(=O)O3)S(C)(=O)=O)c(C3CC3)cc12 (stereo not shown) [Example 29.994, 5-cyclopropyl-N-methyl-6-(N-((5-oxotetrahydrofuran-2-yl)methyl)methylsulfonamido)-2-p-tolylfuro[2,3-b]pyridine-3-carboxamide] | 0.006 µM | –
CNC(=O)c1c(-c2ccccn2)oc2nc(N(C)S(C)(=O)=O)c(I)cc12 [Example 2.3, 5-iodo-N-methyl-6-(N-methylmethylsulfonamido)-2-(pyridin-2-yl)furo[2,3-b]pyridine-3-carboxamide] | 0.408 µM | –
CNC(=O)c1c(-c2ccc(C)cc2)oc2nc(N(CCCC3CCCC3C(=O)O)S(C)(=O)=O)c(I)cc12 (stereo not shown) [Example 18.9991, 2-(3-(N-(5-iodo-3-(methylcarbamoyl)-2-p-tolylfuro[2,3-b]pyridin-6-yl)methylsulfonamido)propyl)cyclopentanecarboxylic acid] | 0.005 µM | –
CNC(=O)c1c(-c2ccc(F)cc2)oc2nc(N(CCCOCCOC)S(C)(=O)=O)c(I)cc12 [Example 18.992, 2-(4-fluorophenyl)-5-iodo-6-(N-(3-(2-methoxyethoxy)propyl)methylsulfonamido)-N-methylfuro[2,3-b]pyridine-3-carboxamide] | 0.237 µM | –
CNC(=O)c1c(-c2ccc(C)cc2)oc2nc(N(CCCC(CC#N)C(=O)OC)S(C)(=O)=O)c(C3CC3)cc12 (stereo not shown) [Example 29.9998, methyl 2-(cyanomethyl)-5-(N-(5-cyclopropyl-3-(metfiylcarbamoyl)-2-p-tolylfuro[2,3-b]pyridin-6-yl)methylsulfonamido) pentanoate] | 0.005 µM | –
CCc1ccc(-c2oc3nc(N(CCOCC(C)(C)C(=O)O)S(C)(=O)=O)c(C4CC4)cc3c2C(=O)NC)cc1 [Example 41.1, 3-(2-(N-(5-Cyclopropyl-2-(4-ethylphenyl)-3-(methylcarbamoyl)furo[2,3-b]pyridin-6-yl)methylsulfonamido)ethoxy)-2,2-dimethylpropanoic acid] | 0.002 µM | –
CNC(=O)c1c(-c2ccc(C)cc2)oc2nc(N(CCCN3CCCC3=O)S(C)(=O)=O)c(C3CC3)cc12 [Example 23.999997, 5-cyclopropyl-N-methyl-6-(N-(3-(2-oxopyrrolidin-1-yl)propyl)methylsulfonamido)-2-p-tolylfuro[2,3-b] pyridine-3-carboxamide] | 0.005 µM | –
CNC(=O)c1c(-c2ccc(C)cc2)oc2nc(N(CCOCC(C)(C)C(=O)O)S(C)(=O)=O)c(C3CC3)cc12 [Example 41, 3-(2-(N-(5-cyclopropyl-3-(methylcarbamoyl)-2-p-tolylfuro[2,3-b]pyridin-6-yl)methylsulfonamido)ethoxy)-2,2-dimethylpropanoic acid] | 0.003 µM | –
CNC(=O)c1c(-c2ccc(C)cc2)oc2nc(N(CCCCc3nn[nH]n3)S(C)(=O)=O)c(C3CC3)cc12 [Example 29.93, 6-(N-(4-(2H-tetrazol-5-yl)butyl)methylsulfonamido)-5-cyclopropyl-N-methyl-2-p-tolylfuro[2,3-b]pyridine-3-carboxamide] | 0.003 µM | –
